One block for each molecule: values may come before it.
Experiments:
[1] = Parallel artificial membrane permeability assay (PAMPA-GIT, PAMPA-BBB, PAMPA-SKIN); format: in vitro ADME; details: isoflavones from red clover extracts, donor 12.5 mg/mL, pH 7.4, 4 h at 37 °C, BBB and SKIN membranes; for Papp at 4 h, 12.5 mg/mL: PAMPA, read-out: Apparent permeability coefficient (Papp)
Experimental: Then, 200 μL of the donor solution was added to the donor wells. Subsequently, each filter membrane of the top plate was coated with a suitable lipid solution, i.e., 5 μL BBB, GIT or preincubated with hydration buffer 24 h earlier for SKIN assay (Pion Inc., Billerica, MA, USA), and the acceptor well was filled with 200 μL of acceptor fluid. The acceptor plate and the donor plate were coupled together and incubated for 4 h at 37 °C. After incubation, the plates were separated, and the concentrations of compounds that crossed the membrane were determined using HPLC. To calculate Papp, the following equation was used:(3) Papp=−ln1−CA/Cequilibrium/S×1/VD+1/VA×t where Papp—effective permeability coefficient (cm/s), VD—donor volume, VA—acceptor volume, Cequilibrium—equilibrium concentration, S—membrane area, and t—incubation time (in seconds).
Samples were analyzed in triplicate.

[2] = parameters: method as in PMID 29504397; details: rat study; cited from earlier work
collagenase = assay: Collagenase inhibition assay; format: biochemical; details: positive control
Experimental: The collagenase inhibitory activity of each sample was determined in vitro according to Widodo et al. with some modifications. In summary, 15.0 μL of enzyme, 60 μL of tricine buffer (pH 7.5) and 30 μL of extracts (50 mg/mL) were mixed and incubated at 37 °C for 20 min. Next, 20 μL of FALGPA (0.5 mM) was added to the mixture, and the absorbance was immediately measured at 325 nm using the plate reader (Multiskan GO 1510, Thermo Fisher Scientific, Vantaa, Finland). The absorbance was measured again after 20 min of incubation at 37 °C following the addition of the substrate. A control sample containing only the solvent used instead of the extract was performed, and the results were reduced by the value of the blank representing the enzyme-free sample. The positive control was a sample containing a solution of epigallocatechin gallate instead of the extract tested. The collagenase inhibition rate (presented for the final concentration of substance in enzymatic reaction) expressed as a percentage of inhibition was calculated using Formula (2).

[3] = CUPRAC assay (antioxidant activity); details: standard substance
Experimental: To create the CUPRAC reagent, a conical flask wrapped in aluminum foil was used. Equal volumes of a 7.5 mM neocuproine solution in 96% ethanol, a 10 mM aqueous copper chloride solution and an ammonium acetate buffer solution (pH = 7) were added to the flask. In the 96-well plate, 50.0 µL of the test sample and 150.0 µL of the CUPRAC reagent solution were combined. The blank consisted of a mixture of the CUPRAC reagent and the solvent used for extraction. The assay was replicated six times. The plate was covered with aluminum foil, shaken for 5 min at 25 °C and then incubated at room temperature for 25 min. The absorbance was measured at 450 nm using a plate reader (Multiskan GO 1510, Thermo Fisher Scientific, Vantaa, Finland). […] This value was determined using a polynomial trend line.

[4] = DPPH assay (free radical scavenging); details: standard substance
Experimental: In summary, a 96-well plate was used for the assay. Each well contained 25.0 μL of the test sample and 175.0 μL of a DPPH radical solution (3.9 mg/50 mL) in methanol. The control sample consisted of the DPPH radical solution and the solvent used for extraction, while the blank represented the absorbance value obtained from combining 25.0 μL of the extraction solvent with 175.0 μL of the solvent used to dissolve the DPPH radical (methanol). This procedure was repeated six times. The plate was shaken for 5 min at 25 °C and then incubated for 25 min at room temperature. The absorbance was measured at 517 nm using a plate reader (Multiskan GO 1510, Thermo Fisher Scientific, Vantaa, Finland). The free radical scavenging capacity (%) of the test extracts and the standard substance was calculated using the following equation:(1) […] activity%=A0-A1/A0×100% where A0 is the absorbance of the control, and A1 is the absorbance of the tested sample.

Structure (SMILES): O=C(O[C@@H]1Cc2c(O)cc(O)cc2O[C@@H]1c1cc(O)c(O)c(O)c1)c1cc(O)c(O)c(O)c1 [EGCG, epigallocatechin gallate]
Collagenase inhibition IC50 (collagenase): IC50 = 0.666 ± 0.007 mg/ml

Structure (SMILES): O=C1O[C@H]([C@@H](O)CO)C(O)=C1O [Ascorbic acid]
CUPRAC IC50 [3]: 73 ± 3 µg/mL
DPPH IC50 [4]: 68 ± 5 µg/mL

Second part, led by results:

Papp at 4 h, 12.5 mg/mL [1]: > 1 ×10⁻⁶ cm/s
Structure (SMILES): COc1ccc(-c2coc3cc(O)ccc3c2=O)cc1 [formononetin]
bioavailability [2]: 21.8%

Papp at 4 h, 12.5 mg/mL [1]: > 1 ×10⁻⁶ cm/s
Structure (SMILES): COc1ccc(-c2coc3cc(O)cc(O)c3c2=O)cc1 [biochanin A]

Apparent permeability coefficient (Papp) [1]: did not show such permeability
Structure (SMILES): O=c1c(-c2ccc(O)cc2)coc2cc(O)cc(O)c12 [genistein]

Source: paper PMC10343205, “Multidirectional Effects of Red Clover (Trifolium pratense L.) in Support of Menopause Therapy” (Molecules, 2023)
